Values quoted from earlier work, collected in paper PMC9516332 (Frontiers in Oncology, 2022).
Like-named read-outs stand apart in the source and are kept apart here.

Key:
Conditions in all cases: cited from earlier work
[1] = biological target: T1, panel of 255 wild-type kinases (Homo sapiens, UniProt O14920)
T1 sequence (O14920 1-756): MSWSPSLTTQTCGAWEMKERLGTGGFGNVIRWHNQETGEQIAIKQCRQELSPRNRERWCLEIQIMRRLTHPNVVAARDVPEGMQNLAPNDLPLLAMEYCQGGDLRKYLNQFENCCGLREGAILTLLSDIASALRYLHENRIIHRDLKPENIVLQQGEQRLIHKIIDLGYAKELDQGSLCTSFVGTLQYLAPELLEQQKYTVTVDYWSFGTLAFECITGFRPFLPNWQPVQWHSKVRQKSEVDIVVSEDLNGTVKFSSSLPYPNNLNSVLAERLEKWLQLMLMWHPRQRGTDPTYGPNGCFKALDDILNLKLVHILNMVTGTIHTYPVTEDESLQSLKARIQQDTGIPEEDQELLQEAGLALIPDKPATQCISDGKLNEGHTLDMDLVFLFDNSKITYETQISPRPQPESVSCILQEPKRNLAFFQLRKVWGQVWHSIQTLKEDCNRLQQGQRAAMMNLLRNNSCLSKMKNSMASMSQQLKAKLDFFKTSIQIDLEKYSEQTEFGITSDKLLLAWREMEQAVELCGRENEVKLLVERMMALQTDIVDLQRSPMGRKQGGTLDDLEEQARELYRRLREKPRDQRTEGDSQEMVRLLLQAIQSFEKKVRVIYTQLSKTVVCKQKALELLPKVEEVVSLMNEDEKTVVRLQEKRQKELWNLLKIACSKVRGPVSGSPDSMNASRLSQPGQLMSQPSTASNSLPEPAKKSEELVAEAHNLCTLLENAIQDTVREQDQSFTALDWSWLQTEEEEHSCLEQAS

[2] = biological target: panel of 255 wild-type kinases (Homo sapiens, UniProt P11802)
[3] = biological target: T2, panel of 255 wild-type kinases (Homo sapiens, UniProt P29320)
T2 sequence (P29320 21-983): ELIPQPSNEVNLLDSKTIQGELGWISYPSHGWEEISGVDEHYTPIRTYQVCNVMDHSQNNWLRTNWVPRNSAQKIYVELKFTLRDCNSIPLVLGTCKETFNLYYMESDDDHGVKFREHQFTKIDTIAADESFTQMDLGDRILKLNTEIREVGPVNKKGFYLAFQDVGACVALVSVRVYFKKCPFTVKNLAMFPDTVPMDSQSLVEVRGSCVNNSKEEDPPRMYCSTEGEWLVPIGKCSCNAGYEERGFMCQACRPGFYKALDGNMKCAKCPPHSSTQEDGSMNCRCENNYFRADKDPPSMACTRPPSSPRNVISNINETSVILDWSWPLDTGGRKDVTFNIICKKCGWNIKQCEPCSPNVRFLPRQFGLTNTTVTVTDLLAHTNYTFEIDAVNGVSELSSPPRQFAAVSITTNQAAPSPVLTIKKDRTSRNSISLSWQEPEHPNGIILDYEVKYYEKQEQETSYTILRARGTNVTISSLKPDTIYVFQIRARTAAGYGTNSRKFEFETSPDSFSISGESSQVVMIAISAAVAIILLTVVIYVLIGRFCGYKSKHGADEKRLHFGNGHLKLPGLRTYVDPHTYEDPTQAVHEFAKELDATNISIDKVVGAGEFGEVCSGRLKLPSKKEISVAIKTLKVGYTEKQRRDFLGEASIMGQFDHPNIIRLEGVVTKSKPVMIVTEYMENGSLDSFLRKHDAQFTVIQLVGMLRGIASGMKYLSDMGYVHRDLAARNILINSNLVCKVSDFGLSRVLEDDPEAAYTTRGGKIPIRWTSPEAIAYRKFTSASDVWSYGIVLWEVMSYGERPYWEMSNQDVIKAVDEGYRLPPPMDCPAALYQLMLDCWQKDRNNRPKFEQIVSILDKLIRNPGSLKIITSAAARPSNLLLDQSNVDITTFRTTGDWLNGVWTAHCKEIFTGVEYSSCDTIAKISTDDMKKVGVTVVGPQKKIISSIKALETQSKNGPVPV

[4] = biological target: panel of 255 wild-type kinases (Homo sapiens, UniProt Q16644)
[5] = biological target: T3, panel of 255 wild-type kinases (Homo sapiens, UniProt Q96L34)
T3 sequence (Q96L34 1-752): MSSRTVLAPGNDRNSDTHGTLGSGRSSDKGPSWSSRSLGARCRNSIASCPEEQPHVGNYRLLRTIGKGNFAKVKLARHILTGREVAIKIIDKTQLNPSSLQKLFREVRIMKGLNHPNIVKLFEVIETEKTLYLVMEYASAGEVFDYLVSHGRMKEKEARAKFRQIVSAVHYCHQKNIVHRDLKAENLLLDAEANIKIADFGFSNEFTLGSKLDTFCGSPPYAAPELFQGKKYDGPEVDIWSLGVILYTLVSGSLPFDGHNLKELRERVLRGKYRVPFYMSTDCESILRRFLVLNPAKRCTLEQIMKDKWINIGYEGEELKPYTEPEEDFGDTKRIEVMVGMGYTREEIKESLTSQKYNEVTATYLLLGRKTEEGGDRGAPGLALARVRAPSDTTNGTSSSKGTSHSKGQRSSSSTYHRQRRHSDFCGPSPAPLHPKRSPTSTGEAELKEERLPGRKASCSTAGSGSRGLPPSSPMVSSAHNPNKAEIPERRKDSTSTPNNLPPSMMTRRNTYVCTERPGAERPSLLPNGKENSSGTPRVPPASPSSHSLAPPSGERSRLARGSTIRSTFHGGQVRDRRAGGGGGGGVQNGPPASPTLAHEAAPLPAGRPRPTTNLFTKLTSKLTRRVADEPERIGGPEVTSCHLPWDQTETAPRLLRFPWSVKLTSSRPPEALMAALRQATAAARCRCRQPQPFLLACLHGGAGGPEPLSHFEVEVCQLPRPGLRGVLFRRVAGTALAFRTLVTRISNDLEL

[6] = biological target: panel of 255 wild-type kinases (Homo sapiens, UniProt Q9H2X6)
[7] = kinase IKKβ, 1 µmol/L single concentration, ref DOI: 10.1371/journal.pone.0092146
[8] = CDK4/CycD3 kinase assay, 1 µmol/L single concentration, ref DOI: 10.1371/journal.pone.0092146
[9] = kinase EPHA3, 1 µmol/L single concentration, ref DOI: 10.1371/journal.pone.0092146
[10] = MAPKAPK3, 1 µmol/L single concentration, ref DOI: 10.1371/journal.pone.0092146
[11] = MARK4, 1 µmol/L single concentration, ref DOI: 10.1371/journal.pone.0092146
[12] = kinase HIPK2, 1 µmol/L single concentration, ref DOI: 10.1371/journal.pone.0092146
[13] = kinase IKKβ, 1 µmol/L single concentration, ref DOI: 10.1158/1535-7163.MCT-18-0877
[14] = CDK4/CycD3 kinase assay, 1 µmol/L single concentration, ref DOI: 10.1158/1535-7163.MCT-18-0877
[15] = kinase EPHA3, 1 µmol/L single concentration, ref DOI: 10.1158/1535-7163.MCT-18-0877
[16] = MAPKAPK3, 1 µmol/L single concentration, ref DOI: 10.1158/1535-7163.MCT-18-0877
[17] = MARK4, 1 µmol/L single concentration, ref DOI: 10.1158/1535-7163.MCT-18-0877
[18] = kinase HIPK2, 1 µmol/L single concentration, ref DOI: 10.1158/1535-7163.MCT-18-0877

SMILES | %-inhibition at 1 µmol/L, IKKβ [1, 7] | %-inhibition CDK4/CycD3 [2, 8] | %-inhibition at 1 µmol/L, EPHA3 [3, 9] | %-inhibition, MAPKAPK3 [4, 10] | %-inhibition, MARK4 [5, 11] | %-inhibition at 1 µmol/L, HIPK2 [6, 12] | %-inhibition at 1 µmol/L, IKKβ [1, 13] | %-inhibition CDK4/CycD3 [2, 14] | %-inhibition at 1 µmol/L, EPHA3 [3, 15] | %-inhibition, MAPKAPK3 [4, 16] | %-inhibition, MARK4 [5, 17] | %-inhibition at 1 µmol/L, HIPK2 [6, 18] | other results
CCCS(=O)(=O)Nc1ccc(F)c(C(=O)c2c[nH]c3ncc(-c4ccc(Cl)cc4)cc23)c1F [vemurafenib] | -3.31% | -3.26% | -7.52% | 12% | 3.78% | -5% | – | – | – | – | – | – | –
CC(=O)Nc1cccc(-n2c(=O)n(C3CC3)c(=O)c3c(Nc4ccc(I)cc4F)n(C)c(=O)c(C)c32)c1 [trametinib] | 0.741% | 5.62% | -6% | -9% | -15% | 0.155% | – | – | – | – | – | – | –
CCc1cc2c(cc1N1CCC(N3CCOCC3)CC1)C(C)(C)c1[nH]c3cc(C#N)ccc3c1C2=O [alectinib] | – | – | – | – | – | – | -5% | -1.89% | 3.25% | -0.429% | -3% | 8% | –
CC(C)(C)c1nc(-c2cccc(NS(=O)(=O)c3c(F)cccc3F)c2F)c(-c2ccnc(N)n2)s1 [dabrafenib] | 3.71% | 23% | 18% | -11% | -27% | 42% | – | – | – | – | – | – | –
CC#CC(=O)N1CCC[C@H]1c1nc(-c2ccc(C(=O)Nc3ccccn3)cc2)c2c(N)nccn12 [acalabrutinib] | – | – | – | – | – | – | -7% | -13% | -2% | -11% | -15% | -11% | –
O=C(c1ccc(F)c(F)c1Nc1ccc(I)cc1F)N1CC(O)([C@@H]2CCCCN2)C1 [cobimetinib] | – | – | – | – | – | – | 1.29% | 0.294% | 2% | 1.42% | -15% | 1.68% | –
C=CC(=O)Nc1cc(Nc2nccc(-c3cn(C)c4ccccc34)n2)c(OC)cc1N(C)CCN(C)C [osimertinib] | – | – | – | – | – | – | -1.32% | 2.42% | 0.753% | -9% | -13% | 40% | –
Cc1cc(Nc2ncc(Cl)c(Nc3ccccc3S(=O)(=O)C(C)C)n2)c(OC(C)C)cc1C1CCNCC1 [ceritinib] | – | – | – | – | – | – | -7% | 4.63% | 1.74% | -10% | -2.63% | 37% | –
CO[C@@H]1[C@H](N(C)C(=O)c2ccccc2)C[C@H]2O[C@]1(C)n1c3ccccc3c3c4c(c5c6ccccc6n2c5c31)C(=O)NC4 [midostaurin] | – | – | – | – | – | – | -4% | -1.1% | 8% | -7% | 101% | 34% | –
COc1cc(N2CCC(N3CCN(C)CC3)CC2)ccc1Nc1ncc(Cl)c(Nc2ccccc2P(C)(C)=O)n1 [brigatinib] | – | – | – | – | – | – | – | – | – | – | – | – | %-inhibition at 1 µmol/L, IKKβ [1]: -4.22%; %-inhibition CDK4/CycD3 [2]: 40%; %-inhibition at 1 µmol/L, EPHA3 [3]: 0.198%; %-inhibition, MAPKAPK3 [4]: -0.903%; %-inhibition, MARK4 [5]: 101%; %-inhibition at 1 µmol/L, HIPK2 [6]: 9%
C=CC(=O)N1CCC[C@@H](n2nc(-c3ccc(Oc4ccccc4)cc3)c3c(N)ncnc32)C1 [ibrutinib] | – | – | – | – | – | – | -0.348% | 4% | 3.8% | -6.5% | -14% | 2% | –
C[C@@H](Oc1cc(-c2cnn(C3CCNCC3)c2)cnc1N)c1c(Cl)ccc(F)c1Cl [crizotinib] | -5% | 7% | 19% | -13% | 51% | -6.53% | – | – | – | – | – | – | –
